Assay results: the supplement of paper PMC8988213
Counter-ions that a name gives are not always drawn.

Key:
[1] = test system: ID188 patient-derived PDAC 2D line (pre-FOLFIRINOX); assay: normalised area under dose-response curve (viability relative to DMSO, 7 doses up to 10 µM) (fraction (AUC)); higher = less sensitive (more viability retained); conditions: 72 h; top dose: 10 µM
In short: (§1)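 2D PDAC cells grown out from patient-derived organoids were robotically seeded in 96-well plates at 1,500–3,000 cells/well and kept overnight at 37°C in 5% CO2. Compounds from a SelleckChem library were then applied for 72 h at seven concentrations, made as a 3-fold dilution series with 10 µM as the highest. CellTiter-Glo luminescence was measured 10 min later. Viability was normalised to control wells, and the GRmetrics R package was used to derive the area under the dose-response curve.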

[2] = test system: ID211 patient-derived PDAC 2D line (post-FOLFIRINOX); assay: as above; conditions: 72 h; top dose: 10 µM
In short: as §1

SMILES	normalised area under dose-response curve [1]	normalised area under dose-response curve [2]
C/C(=N\NC(=O)c1cccc(S(=O)(=O)N2CCOCC2)c1)c1cc(Cl)ccc1O [SP2509]	0.86	0.824
O=C(Nc1cc(C(F)(F)F)ccc1N1CCCCC1)c1ccncc1 [SRPIN340]	0.964	0.905
O=C(Nc1ccccc1-c1cn2c(CN3CCNCC3)csc2n1)c1cnc2ccccc2n1 [SRT1720 HCl]	0.865	0.812
CC(C)(C)c1ccc(S(=O)(=O)NCc2ccc(C(=O)Nc3cccnc3)cc2)cc1 [STF-31]	0.864	0.865
Cc1cc2c(C(=O)NC[C@H](C)c3ccccc3)c(O)c(O)cc2c(O)c1-c1c(C)cc2c(C(=O)NC[C@H](C)c3ccccc3)c(O)c(O)cc2c1O [Sabutoclax]	0.822	0.909
CC(C(=O)Nc1cccc(/N=C/c2c(O)ccc3ccccc23)c1)c1ccccc1 (stereo not drawn) [Salermide]	0.876	0.858
CC(C)=CCC/C(C)=C/CC/C(C)=C/CSc1ccccc1C(=O)O [Salirasib]	0.949	0.881
CC(C)n1nc(-c2ccc3oc(N)nc3c2)c2c(N)ncnc21 [Sapanisertib (INK 128, MLN0128)]	0.541	0.389
CN1CCN(CCOc2cc(OC3CCOCC3)c3c(Nc4c(Cl)ccc5c4OCO5)ncnc3c2)CC1 [Saracatinib (AZD0530)]	0.858	0.609
NC(=O)C1CCCc2c1[nH]c1ccc(Cl)cc21 (stereo not drawn) [Selisistat (EX 527)]	0.971	0.997
Cc1cc(F)c(C(=O)Nc2cccc(-c3nncn3C(C)C)n2)cc1-n1cnc(C2CC2)c1 [Selonsertib (GS-4997)]	0.951	0.911
Cn1cnc2c(F)c(Nc3ccc(Br)cc3Cl)c(C(=O)NOCCO)cc21 [Selumetinib (AZD6244)]	0.676	0.492
O=C(O)c1ccc2c(c1)nc(Nc1cccc(Cl)c1)c1ccncc12 [Silmitasertib (CX-4945)]	0.924	0.88
O=C([O-])C(Cl)Cl.[Na+] [Sodium dichloroacetate (DCA)]	0.996	0.951
CNC(=O)c1cc(Oc2ccc(NC(=O)Nc3ccc(Cl)c(C(F)(F)F)c3)cc2)ccn1 [Sorafenib Tosylate]	0.947	0.953
CN1CCN(c2nc(C3=C(c4c[nH]c5ccccc45)C(=O)NC3=O)c3ccccc3n2)CC1 [Sotrastaurin]	0.978	0.941
C=CC(=O)Nc1cccc(Nc2nc(Nc3ccc(OCCOC)cc3)ncc2F)c1 [Spebrutinib (CC-292, AVL-292)]	0.709	0.888
Nc1ccc(S(=O)(=O)NC(=O)c2ccccc2)cc1 [Sulfabenzamide]	0.926	0.747
CNC(=O)c1ccc2cc([C@@]3(O)CCn4cncc43)ccc2c1 [TAK-700 (Orteronel)]	1	0.863
CC(C)CC(CC(=O)NO)C(=O)N[C@@H](Cc1ccc2ccccc2c1)C(=O)N[C@@H](C)C(=O)NCCN (stereo partly drawn) [TAPI-1]	0.641	0.9
CNc1cc(-c2cccc(Cl)c2Cl)nc(N)n1 [TH287]	0.896	0.901
Nc1nc(NC2CC2)cc(-c2cccc(Cl)c2Cl)n1 [TH588]	0.914	0.918
C[C@H]1CNC(=O)c2cnn3ccc(nc23)N[C@H](C)c2cc(F)ccc2O1 [TPX-0005]	0.777	0.728
CCN(c1cc(-c2ccc(CN3CCOCC3)cc2)cc(C(=O)NCc2c(C)cc(C)[nH]c2=O)c1C)C1CCOCC1 [Tazemetostat (EPZ-6438)]	0.863	0.716
CC(C)(CO)c1cc2cc(NC(=O)C3(c4ccc5c(c4)OC(F)(F)O5)CC3)c(F)cc2n1C[C@@H](O)CO [Tezacaftor(VX-661)]	0.925	1.02

SMILES	normalised area under dose-response curve [1]	normalised area under dose-response curve [2]
CCCCCCCCCCCCCC(=S)NCCCC[C@H](NC(=O)OCc1ccccc1)C(=O)Nc1ccccc1 [Thiomyristoyl]	0.925	0.787
Cn1cncc1[C@@](N)(c1ccc(Cl)cc1)c1ccc2c(c1)c(-c1cccc(Cl)c1)cc(=O)n2C [Tipifarnib]	0.913	0.832
CC[C@@]1(O)C(=O)OCc2c1cc1n(c2=O)Cc2cc3c(CN(C)C)c(O)ccc3nc2-1 [Topotecan HCl]	0.523	0.464
Cc1cc(Nc2cc(N3CCN(C)CC3)nc(Sc3ccc(NC(=O)C4CC4)cc3)n2)n[nH]1 [Tozasertib (VX-680, MK-0457)]	0.235	0.716
CC1=C(/C=C/C(C)=C/C=C/C(C)=C/C(=O)O)C(C)(C)CCC1 [Tretinoin]	1.12	0.841
NS(=O)(=O)c1ccc(NC(=O)Nc2ccc(F)cc2)cc1 [U-104]	0.94	0.976
COc1cc2nc(N3CCCC3)nc(NCCCCCN3CCCC3)c2cc1OC [UNC0379]	0.943	0.829
O=C(c1cncc(Br)c1)N1CCC(N2CCCC2)CC1 [UNC669]	0.922	0.946
O=C(c1ccc(C(=O)N2CCC(N3CCCC3)CC2)c(Nc2ccccc2)c1)N1CCC(N2CCCC2)CC1 [UNC1215]	0.931	0.951
CCCc1cc(C)[nH]c(=O)c1CNC(=O)c1cc(-c2ccc(N3CCN(C(C)C)CC3)nc2)cc2c1cnn2C(C)C [UNC1999]	0.932	0.786
CNCc1ccc(-c2cc(-c3nc(-c4ccc(S(=O)(=O)C(C)C)cc4)cnc3N)on2)cc1 [VE-822]	0.693	0.888
C=CC(=O)N1CC/C(=C\c2ccc(F)c([N+](=O)[O-])c2)C(=O)/C(=C/c2ccc(F)c([N+](=O)[O-])c2)C1 [VLX1570]	0.602	0.243
CC(C)(O)CNc1ncc(-c2ccnc(Nc3ccnc(Cl)c3)n2)c(CC2CC2)n1 [VPS34-IN1]	0.949	0.824
Cc1cccc(-c2[nH]c(CNc3ccccc3F)nc2-c2ccc3ncnn3c2)n1 [Vactosertib (TEW-7197)]	0.931	0.871
Clc1ccc(Nc2nnc(Cc3ccncc3)c3ccccc23)cc1 [Vatalanib (PTK787) 2HCl]	0.926	0.894
C[C@]1(c2nc3c(C(N)=O)cccc3[nH]2)CCCN1 [Veliparib (ABT-888)]	0.913	0.923
CCCS(=O)(=O)Nc1ccc(F)c(C(=O)c2c[nH]c3ncc(-c4ccc(Cl)cc4)cc23)c1F [Vemurafenib (PLX4032, RG7204)]	0.813	0.883
CC1(C)CCC(CN2CCN(c3ccc(C(=O)NS(=O)(=O)c4ccc(NCC5CCOCC5)c([N+](=O)[O-])c4)c(Oc4cnc5[nH]ccc5c4)c3)CC2)=C(c2ccc(Cl)cc2)C1 [Venetoclax (ABT-199, GDC-0199)]	0.928	0.887
CC[C@]1(O)C[C@H]2CN(CCc3c([nH]c4ccccc34)[C@@](C(=O)OC)(c3cc4c(cc3OC)N(C=O)[C@H]3[C@@](O)(C(=O)OC)[C@H](OC(C)=O)[C@]5(CC)C=CCN6CC[C@]43[C@@H]65)C2)C1 [Vincristine sulfate]	0.558	0.441
CCC1=C[C@@H]2CN(C1)Cc1c([nH]c3ccccc13)[C@@](C(=O)OC)(c1cc3c(cc1OC)N(C)[C@H]1[C@@](O)(C(=O)OC)[C@H](OC(C)=O)[C@]4(CC)C=CCN5CC[C@]31[C@@H]54)C2 [Vinorelbine Tartrate]	0.546	0.338
CS(=O)(=O)c1ccc(C(=O)Nc2ccc(Cl)c(-c3ccccn3)c2)c(Cl)c1 [Vismodegib (GDC-0449)]	0.926	0.84
CNC(=O)c1cccc(-c2ccc3c(N4CCOC[C@@H]4C)nc(N4CCOC[C@@H]4C)nc3n2)c1 [Vistusertib (AZD2014)]	0.723	0.765
CC[C@@H]1C(=O)N(C)c2cnc(Nc3ccc(C(=O)N[C@H]4CC[C@H](N5CCN(CC6CC6)CC5)CC4)cc3OC)nc2N1C(C)C [Volasertib (BI 6727)]	0.701	0.707
COc1ccc(N(C(=O)Oc2c(C)cccc2C)c2ccnc(Nc3ccc(N4CCN(C)CC4)cc3)n2)c(OC)c1 [WH-4-023]	0.929	0.935
